#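 These data come from cells grown in 96-well plates and exposed to compound for 48 hours at five concentrations. TGI: concentration producing complete growth inhibition.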
# System: HOP-62 NSCLC
# Test: inhibition of tumour cell growth, NCI panel, 48 h
row,Structure (SMILES),TGI [µM]
1,C=C1CCN2CC[C@@H](OC(=O)/C(C)=C\C)[C@@H]12,> 100
2,O=C(N/N=C/c1ccc(Cl)cc1)c1c(Cl)c(Cl)c(Cl)c(Cl)c1-c1nc2ccccc2[nH]1,> 100
3,CCOC(=S)SCC(=O)O,> 100
4,CC1=Nc2ccccc2OC(C)=C1N=Nc1ccc2nc(C)[nH]c2c1,> 100
5,Cc1cccc(Cn2c3c(c4cc(O)ccc42)C(=O)c2ccccc2C3=O)c1,40.9

# System: OVCAR-4 ovarian
# Test: inhibition of tumour cell growth, NCI panel, 48 h
row,Structure (SMILES),TGI [µM]
1,CC(=O)/C=C/C1=C(C)CCCC1(C)CC(C)C (configuration not stated),> 100
2,O=[N+]([O-])c1ccc2[nH]nc(OCc3ccccc3Cl)c2c1,> 100
3,C=C1CCN2CC[C@@H](OC(=O)/C(C)=C\C)[C@@H]12,> 100
4,CCOC(=S)SCC(=O)O,> 100
5,CC1=Nc2ccccc2OC(C)=C1N=Nc1ccc2nc(C)[nH]c2c1,> 100
6,Cc1cccc(Cn2c3c(c4cc(O)ccc42)C(=O)c2ccccc2C3=O)c1,4.57

# System: RXF 393 renal
# Test: inhibition of tumour cell growth, NCI panel, 48 h
row,Structure (SMILES),TGI [µM]
1,CC(=O)/C=C/C1=C(C)CCCC1(C)CC(C)C (configuration not stated),28.4
2,O=[N+]([O-])c1ccc2[nH]nc(OCc3ccccc3Cl)c2c1,48.2
3,C=C1CCN2CC[C@@H](OC(=O)/C(C)=C\C)[C@@H]12,> 100
4,O=C(N/N=C/c1ccc(Cl)cc1)c1c(Cl)c(Cl)c(Cl)c(Cl)c1-c1nc2ccccc2[nH]1,> 100
5,CCOC(=S)SCC(=O)O,> 100
6,CC1=Nc2ccccc2OC(C)=C1N=Nc1ccc2nc(C)[nH]c2c1,> 100
7,Cc1cccc(Cn2c3c(c4cc(O)ccc42)C(=O)c2ccccc2C3=O)c1,21.2

# System: KM12 colon
# Test: inhibition of tumour cell growth, NCI panel, 48 h
row,Structure (SMILES),TGI [µM]
1,CC(=O)/C=C/C1=C(C)CCCC1(C)CC(C)C (configuration not stated),> 100
2,O=[N+]([O-])c1ccc2[nH]nc(OCc3ccccc3Cl)c2c1,> 100
3,C=C1CCN2CC[C@@H](OC(=O)/C(C)=C\C)[C@@H]12,> 100
4,O=C(N/N=C/c1ccc(Cl)cc1)c1c(Cl)c(Cl)c(Cl)c(Cl)c1-c1nc2ccccc2[nH]1,> 100
5,CCOC(=S)SCC(=O)O,> 100
6,CC1=Nc2ccccc2OC(C)=C1N=Nc1ccc2nc(C)[nH]c2c1,> 100
7,Cc1cccc(Cn2c3c(c4cc(O)ccc42)C(=O)c2ccccc2C3=O)c1,> 100

# System: A549 NSCLC
# Test: inhibition of tumour cell growth, NCI panel, 48 h
row,Structure (SMILES),TGI [µM]
1,CC(=O)/C=C/C1=C(C)CCCC1(C)CC(C)C (configuration not stated),> 100
2,O=[N+]([O-])c1ccc2[nH]nc(OCc3ccccc3Cl)c2c1,> 100
3,C=C1CCN2CC[C@@H](OC(=O)/C(C)=C\C)[C@@H]12,> 100
4,O=C(N/N=C/c1ccc(Cl)cc1)c1c(Cl)c(Cl)c(Cl)c(Cl)c1-c1nc2ccccc2[nH]1,> 100
5,CCOC(=S)SCC(=O)O,> 100
6,CC1=Nc2ccccc2OC(C)=C1N=Nc1ccc2nc(C)[nH]c2c1,> 100
7,Cc1cccc(Cn2c3c(c4cc(O)ccc42)C(=O)c2ccccc2C3=O)c1,> 100

# System: OVCAR-5 ovarian
# Test: inhibition of tumour cell growth, NCI panel, 48 h
row,Structure (SMILES),TGI [µM]
1,CC(=O)/C=C/C1=C(C)CCCC1(C)CC(C)C (configuration not stated),> 100
2,O=[N+]([O-])c1ccc2[nH]nc(OCc3ccccc3Cl)c2c1,> 100
3,C=C1CCN2CC[C@@H](OC(=O)/C(C)=C\C)[C@@H]12,> 100
4,O=C(N/N=C/c1ccc(Cl)cc1)c1c(Cl)c(Cl)c(Cl)c(Cl)c1-c1nc2ccccc2[nH]1,> 100
5,CCOC(=S)SCC(=O)O,> 100
6,CC1=Nc2ccccc2OC(C)=C1N=Nc1ccc2nc(C)[nH]c2c1,> 100

# System: COLO 205 colon
# Test: inhibition of tumour cell growth, NCI panel, 48 h
row,Structure (SMILES),TGI [µM]
1,CC(=O)/C=C/C1=C(C)CCCC1(C)CC(C)C (configuration not stated),> 100
2,O=[N+]([O-])c1ccc2[nH]nc(OCc3ccccc3Cl)c2c1,> 100
3,C=C1CCN2CC[C@@H](OC(=O)/C(C)=C\C)[C@@H]12,> 100
4,O=C(N/N=C/c1ccc(Cl)cc1)c1c(Cl)c(Cl)c(Cl)c(Cl)c1-c1nc2ccccc2[nH]1,> 100
5,CCOC(=S)SCC(=O)O,> 100
6,CC1=Nc2ccccc2OC(C)=C1N=Nc1ccc2nc(C)[nH]c2c1,> 100
7,Cc1cccc(Cn2c3c(c4cc(O)ccc42)C(=O)c2ccccc2C3=O)c1,> 100

# System: SK-MEL-28 melanoma
# Test: inhibition of tumour cell growth, NCI panel, 48 h
row,Structure (SMILES),TGI [µM]
1,CC(=O)/C=C/C1=C(C)CCCC1(C)CC(C)C (configuration not stated),> 100
2,O=[N+]([O-])c1ccc2[nH]nc(OCc3ccccc3Cl)c2c1,> 100
3,C=C1CCN2CC[C@@H](OC(=O)/C(C)=C\C)[C@@H]12,> 100
4,O=C(N/N=C/c1ccc(Cl)cc1)c1c(Cl)c(Cl)c(Cl)c(Cl)c1-c1nc2ccccc2[nH]1,> 100
5,CCOC(=S)SCC(=O)O,> 100
6,CC1=Nc2ccccc2OC(C)=C1N=Nc1ccc2nc(C)[nH]c2c1,> 100
7,Cc1cccc(Cn2c3c(c4cc(O)ccc42)C(=O)c2ccccc2C3=O)c1,> 100

# System: NCI-H226 lung
# Test: inhibition of tumour cell growth, NCI panel, 48 h
row,Structure (SMILES),TGI [µM]
1,CC(=O)/C=C/C1=C(C)CCCC1(C)CC(C)C (configuration not stated),> 100
2,O=[N+]([O-])c1ccc2[nH]nc(OCc3ccccc3Cl)c2c1,> 100
3,C=C1CCN2CC[C@@H](OC(=O)/C(C)=C\C)[C@@H]12,> 100
4,O=C(N/N=C/c1ccc(Cl)cc1)c1c(Cl)c(Cl)c(Cl)c(Cl)c1-c1nc2ccccc2[nH]1,> 100
5,CCOC(=S)SCC(=O)O,> 100
6,CC1=Nc2ccccc2OC(C)=C1N=Nc1ccc2nc(C)[nH]c2c1,> 100
7,Cc1cccc(Cn2c3c(c4cc(O)ccc42)C(=O)c2ccccc2C3=O)c1,> 100

# System: SF-268 CNS
# Test: inhibition of tumour cell growth, NCI panel, 48 h
row,Structure (SMILES),TGI [µM]
1,CC(=O)/C=C/C1=C(C)CCCC1(C)CC(C)C (configuration not stated),> 100
2,O=[N+]([O-])c1ccc2[nH]nc(OCc3ccccc3Cl)c2c1,> 100
3,C=C1CCN2CC[C@@H](OC(=O)/C(C)=C\C)[C@@H]12,> 100
4,O=C(N/N=C/c1ccc(Cl)cc1)c1c(Cl)c(Cl)c(Cl)c(Cl)c1-c1nc2ccccc2[nH]1,> 100
5,CCOC(=S)SCC(=O)O,> 100
6,CC1=Nc2ccccc2OC(C)=C1N=Nc1ccc2nc(C)[nH]c2c1,> 100
7,Cc1cccc(Cn2c3c(c4cc(O)ccc42)C(=O)c2ccccc2C3=O)c1,> 100

# System: OVCAR-3 ovarian
# Test: inhibition of tumour cell growth, NCI panel, 48 h
row,Structure (SMILES),TGI [µM]
1,CC(=O)/C=C/C1=C(C)CCCC1(C)CC(C)C (configuration not stated),83
2,O=[N+]([O-])c1ccc2[nH]nc(OCc3ccccc3Cl)c2c1,73.9
3,C=C1CCN2CC[C@@H](OC(=O)/C(C)=C\C)[C@@H]12,> 100
4,O=C(N/N=C/c1ccc(Cl)cc1)c1c(Cl)c(Cl)c(Cl)c(Cl)c1-c1nc2ccccc2[nH]1,> 100
5,CCOC(=S)SCC(=O)O,> 100
6,CC1=Nc2ccccc2OC(C)=C1N=Nc1ccc2nc(C)[nH]c2c1,> 100
7,Cc1cccc(Cn2c3c(c4cc(O)ccc42)C(=O)c2ccccc2C3=O)c1,> 31.6

# System: U251 CNS
# Test: inhibition of tumour cell growth, NCI panel, 48 h
row,Structure (SMILES),TGI [µM]
1,CC(=O)/C=C/C1=C(C)CCCC1(C)CC(C)C (configuration not stated),86.7
2,O=[N+]([O-])c1ccc2[nH]nc(OCc3ccccc3Cl)c2c1,> 100
3,C=C1CCN2CC[C@@H](OC(=O)/C(C)=C\C)[C@@H]12,> 100
4,CCOC(=S)SCC(=O)O,> 100
5,CC1=Nc2ccccc2OC(C)=C1N=Nc1ccc2nc(C)[nH]c2c1,> 100
6,Cc1cccc(Cn2c3c(c4cc(O)ccc42)C(=O)c2ccccc2C3=O)c1,88.3

# System: PC-3 prostate
# Test: inhibition of tumour cell growth, NCI panel, 48 h
row,Structure (SMILES),TGI [µM]
1,CC(=O)/C=C/C1=C(C)CCCC1(C)CC(C)C (configuration not stated),> 100
2,O=[N+]([O-])c1ccc2[nH]nc(OCc3ccccc3Cl)c2c1,> 100
3,C=C1CCN2CC[C@@H](OC(=O)/C(C)=C\C)[C@@H]12,> 100
4,O=C(N/N=C/c1ccc(Cl)cc1)c1c(Cl)c(Cl)c(Cl)c(Cl)c1-c1nc2ccccc2[nH]1,> 100
5,CCOC(=S)SCC(=O)O,> 100
6,CC1=Nc2ccccc2OC(C)=C1N=Nc1ccc2nc(C)[nH]c2c1,> 100
7,Cc1cccc(Cn2c3c(c4cc(O)ccc42)C(=O)c2ccccc2C3=O)c1,38.4

# System: HCT-15 colon
# Test: inhibition of tumour cell growth, NCI panel, 48 h
row,Structure (SMILES),TGI [µM]
1,CC(=O)/C=C/C1=C(C)CCCC1(C)CC(C)C (configuration not stated),30.9
2,O=[N+]([O-])c1ccc2[nH]nc(OCc3ccccc3Cl)c2c1,> 100
3,C=C1CCN2CC[C@@H](OC(=O)/C(C)=C\C)[C@@H]12,> 100
4,O=C(N/N=C/c1ccc(Cl)cc1)c1c(Cl)c(Cl)c(Cl)c(Cl)c1-c1nc2ccccc2[nH]1,> 100
5,CCOC(=S)SCC(=O)O,> 100
6,CC1=Nc2ccccc2OC(C)=C1N=Nc1ccc2nc(C)[nH]c2c1,> 100
7,Cc1cccc(Cn2c3c(c4cc(O)ccc42)C(=O)c2ccccc2C3=O)c1,> 100

# System: SN12C renal
# Test: inhibition of tumour cell growth, NCI panel, 48 h
row,Structure (SMILES),TGI [µM]
1,CC(=O)/C=C/C1=C(C)CCCC1(C)CC(C)C (configuration not stated),38.5
2,O=[N+]([O-])c1ccc2[nH]nc(OCc3ccccc3Cl)c2c1,> 100
3,C=C1CCN2CC[C@@H](OC(=O)/C(C)=C\C)[C@@H]12,> 100
4,O=C(N/N=C/c1ccc(Cl)cc1)c1c(Cl)c(Cl)c(Cl)c(Cl)c1-c1nc2ccccc2[nH]1,> 100

# — PubChem BioAssay (NCI)
